Legend:
FtlA [1] = target: T1, FtlA (Francisella tularensis, UniProt A0AAI8BGE8)
T1 construct: gene FTL_0430

FtlA [2] = target: T1, FtlA; remark: listed apart in the source

T1 sequence (A0AAI8BGE8 1-293): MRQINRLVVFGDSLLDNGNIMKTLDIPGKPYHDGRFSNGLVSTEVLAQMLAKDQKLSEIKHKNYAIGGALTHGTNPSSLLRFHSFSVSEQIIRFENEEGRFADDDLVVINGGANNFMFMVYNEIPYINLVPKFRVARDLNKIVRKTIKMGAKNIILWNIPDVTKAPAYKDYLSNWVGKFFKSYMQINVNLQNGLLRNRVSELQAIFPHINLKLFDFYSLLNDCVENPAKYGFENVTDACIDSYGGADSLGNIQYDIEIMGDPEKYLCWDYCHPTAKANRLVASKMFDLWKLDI

CCCC(=O)Oc1ccc([N+](=O)[O-])cc1 [p-nitrophenyl butyrate (C4)]
p-nitrophenyl ester hydrolysis by purified OMVs (FtlA [1]): OMVs of the wild-type LVS hydrolyzed p-nitrophenyl butyrate (C4) efficiently

CCCC(=O)OCC(COC(=O)CCC)OC(=O)CCC [tributyrin]
halo (clear zone) assay on agar plates (FtlA [2]): E. coli strain harboring the FtlA-expressing plasmid (pST2000) showed a clear zone of halo
